Experiment [1] concerns the target T1, Neuronal acetylcholine receptor subunit alpha-7 (Rattus norvegicus, UniProt Q05941). In words: Agonist activity at rat alpha7 nAChR expressed in HEK293 cells co-expressing human RIC-3 assessed as increase in calcium flux measured for 2 mins by Fluo-4 AM dye based FLIPR assay. It is filed as cell-based.
The target in experiment [2] is T2, 5-hydroxytryptamine receptor 3A (Homo sapiens, UniProt P46098).
T2 sequence (P46098 whole entry): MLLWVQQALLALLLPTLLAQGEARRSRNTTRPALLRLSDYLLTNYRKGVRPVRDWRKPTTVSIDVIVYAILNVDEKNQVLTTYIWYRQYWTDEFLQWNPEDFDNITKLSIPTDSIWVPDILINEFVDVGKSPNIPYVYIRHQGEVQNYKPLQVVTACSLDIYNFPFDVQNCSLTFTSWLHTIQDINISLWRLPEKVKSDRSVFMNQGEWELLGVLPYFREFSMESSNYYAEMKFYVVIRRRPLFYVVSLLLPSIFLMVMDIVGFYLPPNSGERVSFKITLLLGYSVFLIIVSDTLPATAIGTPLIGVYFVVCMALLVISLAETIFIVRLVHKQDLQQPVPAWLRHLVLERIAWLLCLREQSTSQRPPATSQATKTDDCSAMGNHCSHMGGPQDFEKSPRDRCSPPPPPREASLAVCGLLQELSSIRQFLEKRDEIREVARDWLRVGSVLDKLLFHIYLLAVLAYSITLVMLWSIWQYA
The experiment is described as follows: Antagonist activity at human 5-HT3A receptor expressed in HEK293 cells assessed as inhibition of 5-HT-induced calcium flux preincubated for 30 mins prior to 5-HT addition by Fluo-4 AM dye based FLIPR assay. It is filed as cell-based.

Experiment [3] can be described thus: Selectivity ratio of IC50 for human 5-HT3A receptor expressed in HEK293 cells to EC50 for rat alpha7 nAChR expressed in HEK293 cells. It is filed as cell-based.
Experiment [4] has as its target Neuronal acetylcholine receptor; alpha3/beta4 (Rattus norvegicus, UniProt P04757+P12392). The experiment is described as follows: Agonist activity at rat alpha3beta4 nAChR expressed in HEK293 cells assessed as increase in calcium flux measured for 2 mins by Fluo-4-AM dye based FLIPR assay. The experiment is classed as cell-based. In general terms: A change in cytosolic calcium serves as a functional read-out for many receptors and channels.

In experiment [5] the target is Neuronal acetylcholine receptor; alpha4/beta2 (Rattus norvegicus, UniProt P09483+P12390). The experiment is described as follows: Agonist activity at rat alpha4beta2 nAChR expressed in HEK293 cells assessed as increase in calcium flux measured for 2 mins by Fluo-4-AM dye based FLIPR assay. It is filed as cell-based.
Sequence of Neuronal acetylcholine receptor; alpha4/beta2 (P09483 whole entry): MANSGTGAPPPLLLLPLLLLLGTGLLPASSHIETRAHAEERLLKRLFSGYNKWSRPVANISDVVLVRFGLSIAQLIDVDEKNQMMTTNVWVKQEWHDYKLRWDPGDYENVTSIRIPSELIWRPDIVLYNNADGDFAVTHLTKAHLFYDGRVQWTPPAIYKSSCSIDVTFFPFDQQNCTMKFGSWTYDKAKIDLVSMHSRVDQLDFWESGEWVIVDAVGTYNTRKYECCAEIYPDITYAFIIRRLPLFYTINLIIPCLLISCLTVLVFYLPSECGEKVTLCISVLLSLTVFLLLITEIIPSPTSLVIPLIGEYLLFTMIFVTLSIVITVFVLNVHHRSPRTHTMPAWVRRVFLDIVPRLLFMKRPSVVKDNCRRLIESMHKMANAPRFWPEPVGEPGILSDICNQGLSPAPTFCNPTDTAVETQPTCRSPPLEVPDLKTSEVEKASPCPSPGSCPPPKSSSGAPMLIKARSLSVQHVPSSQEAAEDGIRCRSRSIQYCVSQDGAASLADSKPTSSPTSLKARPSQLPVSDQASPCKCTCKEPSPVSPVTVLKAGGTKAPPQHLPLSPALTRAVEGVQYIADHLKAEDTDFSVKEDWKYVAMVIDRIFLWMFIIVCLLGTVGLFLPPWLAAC
Sequence of Neuronal acetylcholine receptor; alpha4/beta2 (P12390 whole entry): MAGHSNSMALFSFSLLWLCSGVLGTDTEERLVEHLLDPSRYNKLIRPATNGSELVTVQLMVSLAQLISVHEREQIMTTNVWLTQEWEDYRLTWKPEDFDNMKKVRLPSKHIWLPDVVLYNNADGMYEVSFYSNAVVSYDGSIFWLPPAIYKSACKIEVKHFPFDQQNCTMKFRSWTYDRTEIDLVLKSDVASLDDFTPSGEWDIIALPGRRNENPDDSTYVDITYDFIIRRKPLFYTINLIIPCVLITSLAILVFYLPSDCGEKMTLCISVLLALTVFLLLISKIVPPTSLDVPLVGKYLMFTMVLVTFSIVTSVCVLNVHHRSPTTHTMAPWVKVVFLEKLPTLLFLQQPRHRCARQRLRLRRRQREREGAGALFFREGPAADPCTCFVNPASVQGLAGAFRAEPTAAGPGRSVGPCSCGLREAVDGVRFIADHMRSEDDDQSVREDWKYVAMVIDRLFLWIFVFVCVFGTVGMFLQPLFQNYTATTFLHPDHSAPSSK
Experiment [6] in a line: Agonist activity at rat alpha1beta1deltaepsilon nAChR expressed in HEK293 cells assessed as increase in calcium flux measured for 2 mins by Fluo-4-AM dye based FLIPR assay. The experiment is classed as cell-based. To be noted: HEK293, 2 min.
The target in experiment [7] is T1, Neuronal acetylcholine receptor subunit alpha-7. The experiment is described as follows: Displacement of [125I]alpha-bungarotoxin from rat alpha7 nAChR expressed in HEK293 cell membranes after 2 hrs by topcount scintillation counting analysis. A general note: Displacement assays read how much labelled ligand stays bound in the presence of the test substance.
Experiment [8] deals with Neuronal acetylcholine receptor subunit alpha-7 (Homo sapiens, UniProt P36544). In words: Binding affinity to human alpha7 nAChR.
Sequence of Neuronal acetylcholine receptor subunit alpha-7 (Homo sapiens, UniProt P36544) (P36544 whole entry): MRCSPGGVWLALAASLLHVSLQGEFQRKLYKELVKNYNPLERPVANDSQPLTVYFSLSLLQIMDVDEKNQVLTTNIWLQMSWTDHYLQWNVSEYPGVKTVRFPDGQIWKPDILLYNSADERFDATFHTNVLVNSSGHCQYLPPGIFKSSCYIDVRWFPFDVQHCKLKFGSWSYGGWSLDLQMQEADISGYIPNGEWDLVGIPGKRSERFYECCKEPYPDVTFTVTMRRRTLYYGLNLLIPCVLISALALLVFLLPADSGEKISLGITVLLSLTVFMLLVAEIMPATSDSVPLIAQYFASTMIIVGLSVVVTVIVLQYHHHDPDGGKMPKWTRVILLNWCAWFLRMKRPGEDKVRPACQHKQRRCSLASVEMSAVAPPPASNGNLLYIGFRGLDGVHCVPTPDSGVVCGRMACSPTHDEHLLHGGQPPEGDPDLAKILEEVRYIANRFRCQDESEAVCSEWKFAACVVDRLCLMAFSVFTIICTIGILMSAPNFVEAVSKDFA
In experiment [9] the target is T2, 5-hydroxytryptamine receptor 3A. In words: Binding affinity to 5-HT3A receptor (unknown origin).

A value given as a limit tells only on which side of the number the result lay.

T1 sequence (Q05941 whole entry): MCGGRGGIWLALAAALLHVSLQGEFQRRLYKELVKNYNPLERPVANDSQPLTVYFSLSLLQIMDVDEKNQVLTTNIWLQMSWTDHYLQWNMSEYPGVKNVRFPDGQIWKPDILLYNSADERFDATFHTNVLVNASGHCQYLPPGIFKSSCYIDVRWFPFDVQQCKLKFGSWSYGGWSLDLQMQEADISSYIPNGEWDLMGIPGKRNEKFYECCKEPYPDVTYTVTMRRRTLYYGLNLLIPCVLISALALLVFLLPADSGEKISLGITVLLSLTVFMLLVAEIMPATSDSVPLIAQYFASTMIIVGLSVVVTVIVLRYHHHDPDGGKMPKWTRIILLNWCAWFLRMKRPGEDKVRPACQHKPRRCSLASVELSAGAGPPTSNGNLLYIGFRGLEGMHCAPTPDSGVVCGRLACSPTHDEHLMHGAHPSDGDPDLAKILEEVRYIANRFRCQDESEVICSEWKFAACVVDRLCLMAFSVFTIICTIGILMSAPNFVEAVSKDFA
Sequence of Neuronal acetylcholine receptor; alpha3/beta4 (P04757 whole entry): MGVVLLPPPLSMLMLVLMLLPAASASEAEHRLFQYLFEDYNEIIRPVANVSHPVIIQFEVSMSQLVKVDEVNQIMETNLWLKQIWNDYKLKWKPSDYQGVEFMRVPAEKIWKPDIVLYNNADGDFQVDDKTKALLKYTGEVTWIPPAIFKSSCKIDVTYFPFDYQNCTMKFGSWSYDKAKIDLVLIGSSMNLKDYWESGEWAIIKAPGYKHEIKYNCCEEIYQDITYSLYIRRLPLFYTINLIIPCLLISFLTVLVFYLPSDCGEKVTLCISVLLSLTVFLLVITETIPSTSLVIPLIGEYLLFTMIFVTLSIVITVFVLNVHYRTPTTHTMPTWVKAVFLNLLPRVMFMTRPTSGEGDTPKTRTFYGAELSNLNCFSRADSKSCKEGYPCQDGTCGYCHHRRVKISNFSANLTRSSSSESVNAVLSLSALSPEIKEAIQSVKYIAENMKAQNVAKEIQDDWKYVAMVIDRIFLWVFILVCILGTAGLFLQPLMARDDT
Sequence of Neuronal acetylcholine receptor; alpha3/beta4 (P12392 whole entry): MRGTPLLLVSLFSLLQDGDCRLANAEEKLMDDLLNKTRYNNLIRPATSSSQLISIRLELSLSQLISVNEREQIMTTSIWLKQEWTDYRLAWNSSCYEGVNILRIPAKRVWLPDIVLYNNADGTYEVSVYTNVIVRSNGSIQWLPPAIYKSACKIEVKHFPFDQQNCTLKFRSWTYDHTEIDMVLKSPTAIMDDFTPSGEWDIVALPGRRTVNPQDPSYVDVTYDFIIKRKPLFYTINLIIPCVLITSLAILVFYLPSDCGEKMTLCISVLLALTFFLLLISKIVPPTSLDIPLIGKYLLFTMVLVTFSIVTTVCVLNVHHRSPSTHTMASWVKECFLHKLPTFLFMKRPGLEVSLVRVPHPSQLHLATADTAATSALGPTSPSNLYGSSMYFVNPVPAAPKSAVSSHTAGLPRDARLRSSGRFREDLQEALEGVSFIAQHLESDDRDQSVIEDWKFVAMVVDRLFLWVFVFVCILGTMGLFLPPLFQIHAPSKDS

By EC50 is commonly meant the midpoint of the concentration-response curve. A word on the IC50: it is the concentration that gives 50% inhibition. `Clc1ccc2c(c1)nc1n2C[C@@]2(CN3CCC2CC3)O1`: in experiment [1], the EC50 amounted to 31 nM. In addition, the IC50 in experiment [2] was 6 nM. The Ratio IC50/EC50 in experiment [3] came out at 0.2.

Take `Cc1ccc2nc3n(c2c1)C[C@@]1(CN2CCC1CC2)O3`: the EC50 in experiment [1] amounted to 33 nM. Also, in experiment [2], the IC50 turned out to be 6 nM. Besides, the Ratio IC50/EC50 in experiment [3] came to 0.2.

For `c1ccc2c(c1)nc1n2C[C@@]2(CN3CCC2CC3)O1`, the EC50 in [4] is over 100000 nM; in [1] it was 11 nM; in experiment [5] it was over 100000 nM; in experiment [6], over 100000 nM. For the same compound, in [2], the IC50 worked out at 15 nM. The Ratio IC50/EC50 in experiment [3] was determined as 1.4.

In the case of `Clc1ccc2nc3n(c2c1)C[C@@]1(CN2CCC1CC2)O3`, the concentration for a half-maximal effect (EC50) in [1] was determined as 14 nM. Moreover, the IC50 in [2] stood at 9 nM. In experiment [3], the Ratio IC50/EC50 was found to be 0.6.

In the case of `COc1ccc(-c2cccc3c2nc2n3C[C@@]3(CN4CCC3CC4)O2)cc1`, the EC50 in experiment [1] came to 26 nM. For the same compound, the IC50 in [2] turned out to be 10400 nM. In addition, in experiment [3], the Ratio IC50/EC50 is 400.

As for `Brc1nc2n(c1Br)CC1(CN3CCC1CC3)O2` (racemic), the 50% effective concentration (EC50) in experiment [1] was 32 nM. In experiment [2], the IC50 was found to be 62 nM.

`Clc1cccc2c1nc1n2C[C@@]2(CN3CCC2CC3)O1`: the EC50 in [1] is 16 nM. The IC50 in experiment [2] was 4 nM. Also, the Ratio IC50/EC50 in experiment [3] stood at 0.3.

For the compound `Clc1cccc2nc3n(c12)C[C@@]1(CN2CCC1CC2)O3`, the EC50 in experiment [1] worked out at 268 nM. Further, the IC50 in experiment [2] was determined as 11 nM. For the same compound, the Ratio IC50/EC50 in [3] came out at 0.04.

The term Ki denotes a measure of affinity in units of concentration, obtained from inhibition or displacement. Higher therefore signals lower affinity. `c1cnc2c(c1)C[C@@]1(CN3CCC1CC3)O2` [AZD0328]: the Ki in [7] was 5 nM.

For `Brc1nc2n(c1Br)C[C@]1(CN3CCC1CC3)O2`, the concentration giving a half-maximal response (EC50) in experiment [1] is 4030 nM. Besides, the half-inhibitory concentration (IC50) in [2] was found to be 9700 nM.

Turning to `FC(F)(F)c1ccc2nc3n(c2c1)C[C@@]1(CN2CCC1CC2)O3`, the EC50 in experiment [1] was 69 nM. The IC50 in [2] was found to be 17 nM. Further, in experiment [3], the Ratio IC50/EC50 was 0.25.

On to `Brc1nc2n(c1Br)C[C@@]1(CN3CCC1CC3)O2`, for which the EC50 in experiment [1] stood at 19 nM. Further, the IC50 in experiment [2] amounted to 43 nM.

In the case of `c1ccc2c(c1)nc1n2C[C@]2(CN3CCC2CC3)O1`, in [1], the EC50 came to 6400 nM. The IC50 in experiment [2] stood at 13000 nM. In experiment [3], the Ratio IC50/EC50 amounted to 2.

On to `c1ccc(-c2cnc3c(c2)C[C@@]2(CN4CCC2CC4)O3)cc1`, for which the Ki in [8] and in experiment [9] was 2 nM each time.

For the compound `COc1ccc2c(c1)nc1n2C[C@@]2(CN3CCC2CC3)O1`, the EC50 in experiment [1] stood at 7 nM. The IC50 in experiment [2] was determined as 11 nM. Besides, the Ratio IC50/EC50 in experiment [3] worked out at 1.6.

For `FC(F)(F)c1ccc2c(c1)nc1n2C[C@@]2(CN3CCC2CC3)O1`, the concentration giving a half-maximal response (EC50) in experiment [1] turned out to be 13 nM. The IC50 in experiment [2] was 660 nM. Further, the Ratio IC50/EC50 in experiment [3] came to 51.

As for `Cc1cccc2c1nc1n2C[C@@]2(CN3CCC2CC3)O1`, the concentration giving a half-maximal response (EC50) in [1] worked out at 7 nM. Besides, in experiment [2], the IC50 was 7 nM. Moreover, the Ratio IC50/EC50 in experiment [3] was found to be 1.

As for `FC(F)(F)c1cccc2c1nc1n2C[C@@]2(CN3CCC2CC3)O1`, in experiment [1], the EC50 was found to be 22 nM. Moreover, in [2], the IC50 is 11 nM. Also, the Ratio IC50/EC50 in experiment [3] was 0.5.

Take `Cc1ccc2c(c1)nc1n2C[C@@]2(CN3CCC2CC3)O1`: in [1], the EC50 amounted to 5 nM. For the same compound, the IC50 in [2] was found to be 13 nM. For the same compound, the Ratio IC50/EC50 in experiment [3] amounted to 2.6.
